For one assay, the system named is Human tumor cells. Kind of assay: Soft Agar Assay (anchorage-independent growth). Format: cell-based. Particulars: colony outgrowth 10-16 days, MTT stain. As to the method: Anchorage-independent growth is a characteristic of tumorigenic cell lines. Human tumor cells can be suspended in growth medium containing 0.3% agarose and an indicated concentration of a famesyl transferase inhibitor. The solution can be overlayed onto growth medium solidified with 0.6% agarose containing the same concentration of farnesyl transferase inhibitor as the top layer. After the top layer is solidified, plates can be incubated for 10-16 days at 37° C. under 5% CO2 to allow colony outgrowth. After incubation, the colonies can be stained by overlaying the agar with a solution of MTT (3-[4,5-dimethyl-thiazol-2-yl]-2,5-diphenyltetrazolium bromide, Thiazolyl blue) (1 mg/mL in PBS). Colonies can be counted and the IC50's can be determined.

The target in assay [1] is purified human farnesyl protein transferase (Homo sapiens, UniProt P49354+P49356). The assay can be described thus: FPT activity: transfer of [3H] farnesyl from [3H] farnesyl pyrophosphate to biotinylated H-ras peptide (SPA). Format: biochemical. The note with it: 0.03 nM enzyme, 37° C., 60 minutes. As to the method: FPT activity was determined by measuring the transfer of [^3H] farnesyl from [^3H] farnesyl pyrophosphate to a biotinylated peptide derived from the C-terminus of H-ras (biotin-CVLS). The reaction mixture contains: 50 mM Tris pH7.7, 5 mM MgCl2, 5 μM Zn^++, 5 mM DTT, 0.1% Triton-X, 0.05 μM peptide, 0.03 nM purified human farnesyl protein transferase, 0.180 μM [^3H] farnesyl pyrophosphate, plus the indicated concentration of tricyclic compound or vehicle control in a total volume of 100 μl. The reaction was incubated in a yortemp shaking incubator at 37° C., 45 RPM for 60 minutes and stopped with 150 μl of 0.25 M EDTA containing 0.5% BSA and 1.3 mg/ml Streptavidin SPA beads. Radioactivity was measured in a Wallach 1450 Microbeta liquid scintillation counter. Percent inhibition was calculated relative to the vehicle control.

Each structure is given as a SMILES string. Where “and” joins values, the source holds several entries; their conditions need not be identical. Equal values may be shown once.

The values that follow come from patent US7557107B2, “Farnesyl protein transferase inhibitors as antitumor agents” (Schering Coporation, priority 2003, dated 2009).

On to `Cn1cncc1[C@H](NC(=O)OC1(C)CC1)C1=Cc2cccnc2[C@@H](N2CCN(C(=O)OC3(C)CC3)CC2)c2ccc(Cl)cc21` [Compound 108.1], for which the IC50 in the assay on Human tumor cells is < 0.5 nM; in assay [1], 0.5 to 5 nM and 1.5 nM.

`Cn1cncc1[C@H](NC(=O)OC1(C2CC2)CC1)C1=Cc2cccnc2[C@@H](N2CCN(C(=O)OC3CCCC3)CC2)c2ccc(Cl)cc21` [Compound 112.1, 4-{6-[(Bicyclopropyl-1-yloxycarbonylamino)-(3-methyl-3H-imidazol-4-yl)-methyl]-8-chloro-11H-benzo[5,6]cyclohepta[1,2-b]pyridin-11-yl}-piperazine-1-carboxylic acid cyclopentyl ester] displayed an IC50 in assay [1] of 0.5 to 5 nM.

The compound `CC(C)C1(OC(=O)N2CCN([C@H]3c4ccc(Cl)cc4C([C@@H](NC(=O)OC4(C)CC4)c4cncn4C)=Cc4cccnc43)CC2)CC1` [Compound 118.1] gave an IC50 in assay [1] of 0.5 to 5 nM.

Regarding `COC1(C(=O)N[C@H](C2=Cc3cccnc3[C@@H](N3CCN(C(=O)OCC(C)(C)C)CC3)c3ccc(Cl)cc32)c2cncn2C)CC1` [Compound 119.1], the IC50 in assay [1] lay in the range of 0.5 to 5 nM.

In the case of `COC1(C(=O)N[C@H](C2=Cc3cccnc3[C@@H](N3CCN(C(=O)OCC4(C)CC4)CC3)c3ccc(Cl)cc32)c2cncn2C)CC1` [Compound 120.1], the IC50 in assay [1] fell in the range of 0.5 to 5 nM.

On to `COCC(=O)N[C@H](C1=Cc2cccnc2[C@@H](N2CCN(C(=O)OC(C)C)CC2)c2ccc(Cl)cc21)c1cncn1C` [Compound 136.1], for which the IC50 with Human tumor cells was 0.6 nM; in assay [1], 0.5 to 5 nM and 0.6 nM.

`COC1(C(=O)N[C@H](C2=Cc3cccnc3[C@@H](N3CCN(C(=O)OC(C)C)CC3)c3ccc(Cl)cc32)c2cncn2C)CC1` [Compound 152.1, 4-{8-Chloro-6-[[(1-methoxy-cyclopropanecarbonyl)-amino]-(3-methyl-3H-imidazol-4-yl)-methyl]-11H-benzo[5.6]cyclohepta[1,2-b]pyridin-11-yl}-piperazine-1-carboxylic acid isopropyl ester] came in with an IC50 in assay [1] of 0.5 to 5 nM.
